Where two headings read alike, the source gives them in different places.
What was measured:
Type in all cases: cell-based
[1] = molecular target: T1, RSV A2_F (Human respiratory syncytial virus A, UniProt P03420); assay: RSV fusion assay (luciferase reporter, HEK 293T/17 cells transfected with A2_F); settings: Fusion activity IC50 μM, HEK 293T/17 cells, 24 hr
T1 construct: expressed in transfected cells; host or cells: HEK 293T/17
Protocol: HEK 293T/17 cells were cultured in T75 culture flasks in Dulbecco's medium (DMEM) containing 10% FBS and 1× Penicillin-Streptomycin (Pen/Strep) and warmed to 37° C. prior to use. The cells were passaged by first washing briefly with 3 ml phosphate buffered saline (PBS) followed by a 4 min incubation with […] at 37° C. 7 ml media was then added to the flask and the cells dispersed via pipetting (×3) against the bottom of the flask. Two further T75 flasks were each seeded with 2×10^6 cells in 15 ml fresh media.
Cells were seeded on the T75 plates at the same density as on the 6-well plates the area of a T75 flask and one 1.75 cm radius well from a 6-well plate were compared. 7.79×2 ml of 3×10^5 cells ml^−1 was used to seed a single T75 flask.
HEK cells were removed from a T75 flask as described above. The cells were counted and diluted to 3×10^5 cells/ml in fresh media. Two T75 flasks were each seeded with 15.58 ml diluted cells.
The plasmid DNA (for pFR-Luc and pcDNA3.1_Gal4/NFκB) to be transfected into the HEK cells was first prepared in serum free media (DMEM+Pen/Strep) containing the transfection reagent Fugene 6 (Promega). Transfections were set up as follows (Luc=pFR_Luc, Gal4=pcDNA3.1+_Gal4/NFκB, A2_F=pcDNA3.1+_A2_F)
Serum free media was placed in a 1.5 ml eppendorf tube then the fugene 6 was added into the media. The tube was vortexed for 1 s before being incubated at RT for 5 min. The plasmid DNA was then added to the tube, vortexed for 1 s, then incubated at RT for 15 min
The transfection reagents were then added to the appropriate T75 flask by tipping the flask on end and adding the reagents directly to the media already in the flask. The flask was then tipped on its back so the media could be mixed thoroughly whilst not disturbing the cells before placing the flask the right way up and incubating overnight at 37° C. and 5% CO2.
Compounds were diluted (in a polypropylene round-bottomed 96 well plate) 1:3 in a twelve point dilution curve to give top [final] of either 3.3 μM, 1 μM, 500 nM 200 nM or 100 nM. The Control compound was always run at a concentration of 100 nM.
The cells were then counted and diluted to 4×10^5 cells/ml in fresh media. 50 μl of transfection population 1 cells were added to all wells of the assay plates. 100 μl diluted compound (2 rows per compound), standard curve (one row) and controls (100 nM RV (100% inhibition, four wells), DMSO (0% inhibition, eight wells)) were added to the appropriate wells. 50 μl of the diluted (4×10^5 cells/ml) transfection population 2 cells when then added to all wells.
The plates were then incubated for 24 hr at 37° C. and 5% CO2
Buffers were prepared for the luciferase assay (20 mM tricine, 10 mM MgSO4, 1 mM EDTA, 10 mM DTT) and lysis (25 mM tris-phosphate, 8 mM MgCl2, 1 mM DTT, 1% Triton X-100, 15% glycerol) and stored at −20° C.
Luminescence was measured as described:
Media was discarded into Virkon and the plates washed with 100 ul PBS per well. 20 ul/well of lysis buffer was added to each well and incubated shaking for 5 min at RT. Luciferin was added to LAAB at a dilution of 1:50 to give a working luciferin buffer. 100 μl working luciferin buffer was added to each well and luminescence was measured immediately. […]

[2] = system: RSV A2; assay: Plaque Reduction Assay 1 (Vero cells, immunostaining); settings: two replicate values, read-out: RSV Plaque Reduction assays A2 (PRNT1) (n = 2) IC50
Protocol: Plaque Reduction Assay 1: Vero cells were seeded in 96-well plates in a volume of 100 μL of Optimem supplemented with 3% FCS at a concentration of 4×10^4 cells per well. After an overnight incubation at 37° C. in a humidified 5% CO2 atmosphere, the monolayer of cells should be approximately 90% confluent. Antiviral compounds were titrated in pre-warmed Serum Free (SF) Optimem in a U-bottom 96 well plate. For compounds in a DMSO solution, titration in 100% DMSO was performed first and each concentration added individually to a 2× final concentration at 4% DMSO in SF media before mixing with virus (2% final DMSO with virus). Media was then removed from cells and replaced with PBS (100 μl/well). RSV stock was thawed and diluted in SF Optimem media to 4000 PFU/mLl. An equal volume of virus was added to compounds on the titration plate. PBS was removed from cells which were then inoculated with the virus/compound solution (50 μL/well). Cells were incubated for 2 h in a 37° C.+5% CO2 humidified incubator to allow infection. Inoculum was removed and media (Optimem+1% FCS) added to cells (100 μl/well). Cells were subsequently incubated for 48 h at 37° C.+5% CO2 in a humidified incubator. Immunostaining Procedure: Media was removed from cells and the monolayer washed with PBS. Cells were fixed with ice cold 80% Acetone in PBS (100 μl/well) for 20 mins at −20° C. Fixative was removed and cells are dried for 30 mins with plates inverted. Blocking solution (5% skim milk powder in PBS-T) was added to cells (150 μL/well) and plates were incubated for 30 mins at room temperature. Blocking solution was removed and plates washed once with PBS-T. Primary antibody in blocking solution was added to plates (50 μl/well) and incubated for 1 h at 37° C. Plates were then washed 3 times with PBS-T. Secondary antibody in blocking solution was added to plates ([…]) and incubated for 1 h at 37° C. in the dark. Plates were washed as above and then dried for 10 mins. Plates were scanned on the Odyssey Imager (Li-Cor Biosciences) at a resolution of […], medium quality and level 5 intensity in the […]. Data Analysis: Images obtained were saved and plaque numbers counted with the aid of computer imaging software. EC50 values for compounds were derived from dose response curves [three variable log(inhibitor) vs response] obtained using Graphpad Prism software.

[3] = system: RSV A2 VR-1540; assay: Plaque Reduction Assay 2 (HEp-2 cells, virospot count); settings: human respiratory syncytial virus, 24 h; RSV A2, HEp-2 cells, 1 day
Description: Plaque Reduction Assay 2:
This RSV plaque reduction assay is an infectivity assay which allows quantification of the number of infectious units in a distinct foci of RSV infection. This is indicated by zones of viral antigen detected by specific antibody staining within a monolayer of otherwise healthy tissue culture cells. As each plaque originates from a single infectious virus particle an accurate calculation of the anti-viral effect can be obtained by counting plaques in the presence and absence of an anti-viral compound. HEp-2 cells (ATCC, CCL23) were passaged in flasks and seeded in 96-well plates in DMEM containing antibiotics and supplemented with 10% FBS. During inoculation and subsequent incubation, cells were cultured in DMEM containing 3% FBS. 100 plaque forming unit (PFU)/well of RSV (RSV A2 VR-1540) was mixed with ten serial dilutions of compound. Subsequently, 100 μL of the virus/compound mixtures was added to confluent HEp-2 cell monolayers. The cells and virus/compound mixtures were incubated at 35° C. in a humidified 5% CO2 incubator for 1 day.
Cells were washed twice with PBS before adding 50% v/v EtOH/MeOH, and then stored at −20° C. On the day of the staining, fixative was first removed from the plates. Plates were washed 3× with PBS. A pre-titrated amount of the primary antibody was added in 60 μL PBS/2% milk powder, and plates incubated for 1 h at rt. The plates were washed 3× with PBS/0.05% Tween20 before addition of goat anti-mouse horse radish peroxidase in 60 μL PBS/2% milk powder, and incubated for 1 h at rt. Following three wash steps with PBS/0.05% Tween20, 60 μL ready-to-use TrueBlue was added and plates were incubated at rt for 10-15 min before adding MilliQ water. Plates were washed once with water, incubated for 30-60 min and after removal of water, air-dried in the dark.
Plates were scanned and analyzed using the Immunospot S6 UV analyzer, which is equipped with BioSpot analysis software for counting immunostained plaques (virospots). Plaque counts were used to calculate % infection relative to the mean of the spot count (SC) in the virus control wells for RSV. IC50/IC90 values were calculated as 50% or 90% reduction in signal, respectively, by interpolation of inhibition curves fitted with a 4-parameter nonlinear regression with a variable slope in GraphPad 5.0 (Prism).

[4] = human respiratory syncytial virus, Vero

T1 sequence (P03420 137-574): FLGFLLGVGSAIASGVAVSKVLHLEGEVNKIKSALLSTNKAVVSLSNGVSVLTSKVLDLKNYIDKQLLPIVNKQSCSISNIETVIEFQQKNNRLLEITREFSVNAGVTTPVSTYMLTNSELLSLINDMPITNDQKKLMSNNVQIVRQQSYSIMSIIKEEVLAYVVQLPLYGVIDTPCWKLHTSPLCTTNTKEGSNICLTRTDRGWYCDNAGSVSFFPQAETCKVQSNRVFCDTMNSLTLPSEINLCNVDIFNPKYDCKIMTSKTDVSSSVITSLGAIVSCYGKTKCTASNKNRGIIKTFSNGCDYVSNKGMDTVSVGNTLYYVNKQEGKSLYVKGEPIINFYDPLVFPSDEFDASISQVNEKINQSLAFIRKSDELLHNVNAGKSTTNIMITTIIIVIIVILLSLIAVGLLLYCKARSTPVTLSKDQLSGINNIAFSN
T1 sequence (P03420 26-109): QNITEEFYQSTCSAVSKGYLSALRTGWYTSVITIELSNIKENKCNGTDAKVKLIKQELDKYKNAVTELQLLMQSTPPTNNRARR

Q: Which IC50 [1] does the source give for `CC(C)CNc1nc(N2CCC(N)C2)ncc1CN1C(=O)C2(CC2)c2ccc(F)cc21` (stereo not shown) [Compound 5, 1′-((2-(3-Aminopyrrolidin-1-yl)-4-(isobutylamino)pyrimidin-5-yl)methyl)-6′-fluorospiro[cyclopropane-1,3′-indolin]-2′-one] here?
A: 0.655 µM

Q: What about the IC50 [2, 4] of the same compound?
A: 165 nM

Q: What about the IC50 [2] of the same compound?
A: 215 nM

Q: And the IC50 [3]?
A: 998 nM

Q: `NC1CCN(c2ncc(CN3C(=O)C4(CC4)c4ccc(F)cc43)c(NC3CCOCC3)n2)C1` (stereo not shown) [Compound 10, 1′-((2-(3-Aminopyrrolidin-1-yl)-4-((tetrahydro-2H-pyran-4-yl)amino)pyrimidin-5-yl)methyl)-6′-fluorospiro[cyclopropane-1,3′-indolin]-2′-one] was tested. Which IC50 [1] did it give?
A: 0.184 µM

Q: And the IC50 [3]?
A: 33 nM

Q: For `CCNc1nc(N2CCC(N)C2)ncc1CN1C(=O)C2(CC2)c2ccc(F)cc21` (stereo not shown) [Compound 29, 1′-{[2-(3-Aminopyrrolidin-1-yl)-4-(ethylamino)pyrimidin-5-yl]methyl}-6′-fluoro-1′,2′-dihydrospiro[cyclopropane-1,3′-indole]-2′-one], which IC50 [1] is on record?
A: 1.17 µM

Q: And the IC50 [3]?
A: 740 nM

Q: With `NC1CCN(c2ncc(CN3C(=O)C4(CC4)c4ccc(F)cc43)c(N3CCS(=O)(=O)CC3)n2)C1` (stereo not shown) [Compound 13, 1′-((2-(3-Aminopyrrolidin-1-yl)-4-(1,1-dioxidothiomorpholino)pyrimidin-5-yl)methyl)-6′-fluorospiro[cyclopropane-1,3′-indolin]-2′-one] as the compound, how does the IC50 [1] read?
A: 5.04 µM

Q: And the IC50 [3]?
A: 424 nM

Q: How did the IC50 [1] turn out when `CC(C)CCNc1nc(N2CCC(N)C2)ncc1CN1C(=O)C2(CC2)c2ccc(F)cc21` (stereo not shown) [Compound 1, 1′-((2-(3-Aminopyrrolidin-1-yl)-4-(isopentylamino)pyrimidin-5-yl)methyl)-6′-fluorospiro[cyclopropane-1,3′-indolin]-2′-one] was run?
A: 0.708 µM

Q: What about the IC50 [2, 4] of the same compound?
A: 619 nM

Q: And the IC50 [2]?
A: 316 nM

Q: How did the IC50 [1] turn out when `NC1CCN(c2ncc(CN3C(=O)C4(CC4)c4ccc(F)cc43)c(NCCCCO)n2)C1` (stereo not shown) [Compound 4, 1′-((2-(3-Aminopyrrolidin-1-yl)-4-((4-hydroxybutyl)amino)pyrimidin-5-yl)methyl)-6′-fluorospiro[cyclopropane-1,3′-indolin]-2′-one] was run?
A: 0.452 µM

Q: And the IC50 [2, 4]?
A: 5.48 nM

Q: And the IC50 [2]?
A: 9.3 nM

Q: What about the IC50 [3] of the same compound?
A: 43 nM

Q: `NC1CCN(c2ncc(CN3C(=O)C4(CCC4)c4ccc(F)cc43)c(N[C@H]3CC[C@H](O)CC3)n2)C1` (stereo partly shown) [Compound 20, 1′-{[2-(3-Aminopyrrolidin-1-yl)-4-[(4-hydroxycyclohexyl)amino]pyrimidin-5-yl]methyl}-6′-fluoro-1′,2′-dihydrospiro[cyclobutane-1,3′-indole]-2′-one] was tested. Which IC50 [1] did it give?
A: 1.95 µM

Q: And the IC50 [3]?
A: 116 nM

Reference: patent publication US10603319B2, “Pyrimidine derivatives and their use in treating or preventing a respiratory syncytial virus infection” (REVIRAL LIMITED, priority 2016, dated 2020)
